Assay results published in PubChem BioAssay (NCI).
“And” between values parts separate entries of the source, which are not always exact repeats. Identical values can stand only once.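 A five-concentration, 48-hour dose response in 96-well plates underlies each endpoint, interpolated linearly between surrounding concentrations. Abbreviation: GI50, concentration required for 50% inhibition of growth. TGI: total growth inhibition.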

Tests used:
Assay in all cases: growth of human tumour cells (NCI), 48 h
HL-60(TB) leukemia = test system: HL-60(TB) leukemia
RPMI-8226 leukemia = test system: RPMI-8226 leukemia
HCT-116 colon = test system: HCT-116 colon
HS 578T breast = test system: HS 578T breast
M14 melanoma = test system: M14 melanoma
SNB-19 CNS = test system: SNB-19 CNS
U251 CNS = test system: U251 CNS
UACC-62 melanoma = test system: UACC-62 melanoma
SNB-75 CNS = test system: SNB-75 CNS
DU-145 prostate = test system: DU-145 prostate
OVCAR-5 ovarian = test system: OVCAR-5 ovarian

Row | SMILES | TGI (HL-60(TB) leukemia) | TGI (RPMI-8226 leukemia) [µM] | TGI (HCT-116 colon) | TGI (HS 578T breast) [µM] | TGI (M14 melanoma) | TGI (SNB-19 CNS) [µM] | TGI (U251 CNS) [µM] | TGI (UACC-62 melanoma) [µM] | TGI (SNB-75 CNS) [µM] | TGI (DU-145 prostate) [µM] | TGI (OVCAR-5 ovarian) [µM] | GI50 (HL-60(TB) leukemia) | GI50 (SNB-75 CNS) | GI50 (DU-145 prostate) [nM]
1 | CC(C)NC(=O)CN1CCN(C2=CC(=O)c3c(O)ccc(O)c3C2=O)CC1 | 5.99 µM | > 100 | 9.79 µM | 62.5 | 22.3 µM | 37.2 | 35.9 | 13.3 | 32.6 | 29.7 | 33.5 | – | – | –
2 | O=C1CN2Cc3cc(N4CCOCC4)ccc3N=C2N1 | > 100 µM | > 100 | > 100 µM | > 100 | > 100 µM | > 100 | > 100 | > 100 | > 100 | > 100 | > 100 | – | – | –
3 | O=C1C(CN2CCCCC2)CCCC1CN1CCCCC1 (stereo unspecified) | 39.3 µM and > 63.1 µM | 13.1 | 27.6 µM and 29 µM | 72.3 | > 52.2 µM and 39.5 µM | > 100 | > 100 | > 67.9 | > 100 | 32.2 | > 100 | 19 µM and 8.6 µM | > 100 µM and 46.2 µM | 59
4 | CC1(C)CC(=O)C2=C(C1)c1c(ccc3ccccc13)NC2c1cn(Cc2ccc(Cl)cc2)c2ccccc12 (stereo unspecified) | > 100 µM | > 100 | > 100 µM | > 100 | > 100 µM | > 100 | > 100 | > 100 | > 100 | > 100 | > 100 | – | – | –
5 | CCOC(=O)CCC(NC(=O)c1ccc(Oc2nc3ccc(C(F)(F)F)cc3nc2-c2ccccc2)cc1)C(=O)OCC (stereo unspecified) | > 100 µM | > 100 | > 100 µM | 9.34 | > 100 µM | > 100 | > 100 | > 100 | 29.1 | > 100 | > 100 | – | – | –
6 | S=C(N/N=C(/c1ccccc1)c1ccccn1)Nc1ccccc1Cl | 0.228 µM | > 7.31 | 3.44 µM | 24 | 2.89 µM | 15.8 | 10.9 | 14.6 | 19.4 | 17.8 | 6.94 | – | – | –
7 | CC(C)(C)c1nc2c(o1)C(=O)c1ccccc1C2=O | 1.78 µM | 16.8 | 2.87 µM | 4.26 | 1.97 µM | 9.81 | 4.6 | 1.58 | 6.7 | 2.57 | 4.85 | – | – | –
8 | CC(C)(C)N(Cc1ccc2c(c1)OCO2)C(=O)/C=C\S(=O)c1ccccc1 (stereo unspecified) | 7.6 µM | 9.54 | 7.84 µM | 6.36 | 8.2 µM | 20.7 | 14.9 | 13.6 | 15.1 | 10.2 | 25.1 | – | – | –
9 | COc1ccc2nc3cccc([N+](=O)[O-])c3c(NCCO)c2c1 | 0.0943 µM | 0.019 | 0.00545 µM | 0.0644 | 0.0228 µM | 0.875 | 0.122 | 0.0481 | 0.336 | 0.0619 | 0.0698 | – | – | –
10 | O=C(O)C1CCCN1Cc1cc2ccccc2c2ccccc12 (stereo unspecified) | > 100 µM | > 100 | > 100 µM | > 100 | > 100 µM | > 100 | > 100 | > 100 | > 100 | > 100 | > 100 | – | – | –
11 | CC(=O)C(=[N+]=[N-])C(=O)OC(C)(C)C#N | > 10 µM | > 10 | > 10 µM | > 10 | > 10 µM | > 10 | > 10 | > 10 | 8.12 | > 10 | > 10 | – | – | –
12 | CN(C)CCNc1ccc2c(=O)n(CCN(C)C)c(=O)n3c4ccc([N+](=O)[O-])cc4c(=O)c1c23 | 0.417 µM | 0.605 | 1.24 µM | 3.09 | 2.38 µM | 4.51 | 2.88 | 3.17 | 1.26 | 6.54 | 4.54 | – | – | –
13 | Clc1ccc(Oc2ccc(N=Cc3ccc(Cl)cc3Cl)cc2Cl)cc1 | 57.6 µM | > 100 | > 100 µM | 71.1 | 68 µM | > 100 | 89.3 | > 100 | 87.4 | > 100 | > 100 | – | – | –
14 | COc1ccc(N2C(=O)C3ON(C(C(N)=O)c4ccccc4)C(c4ccc(-c5ccccc5)cc4)C3C2=O)cc1 (stereo unspecified) | > 50 µM | > 50 | > 50 µM | > 50 | > 50 µM | > 50 | > 50 | > 50 | > 50 | > 50 | > 50 | – | – | –
15 | CC1=C2C(=O)[C@H]3[C@@H](CC=C4C[C@@H](O)CC[C@@]43C)[C@@H]2CC[C@]12O[C@@H]1C[C@H](C)CN[C@H]1[C@H]2C | > 65.5 µM | > 100 | > 68.5 µM | > 100 | > 60.4 µM | > 57.6 | > 55.5 | > 92.3 | > 54.4 | > 100 | > 100 | – | – | –
16 | CC(C)(C)c1ccc(-c2nc3ccc([N+](=O)[O-])cc3c(=O)o2)cc1 | 65.6 µM | > 100 | 81.2 µM | 80.8 | > 100 µM | > 100 | 43.4 | 79.3 | 66.1 | > 100 | > 100 | – | – | –
17 | CC1(C)C(=O)C(C)(C)C12SSC1(S2)C(C)(C)C(=O)C1(C)C | 21.1 µM | > 100 | > 100 µM | > 100 | > 100 µM | > 100 | > 100 | > 100 | > 100 | > 100 | > 100 | – | – | –
18 | CC1OC(OC2C(O[C@H]3CC[C@@]4(C)[C@@H](CC[C@@H]5[C@@H]4CC[C@]4(C)[C@@H]6[C@H](C[C@@H]54)O[C@]4(CC[C@@H](C)CO4)[C@H]6C)C3)OC(CO)C(OC3OC(CO)C(O)C(OC4OCC(O)C(O)C4O)C3OC3OCC(O)C(O)C3O)C2O)C(O)C(O)C1O (stereo partly specified) | 1.01 µM | 11.4 | 1.02 µM | 2.74 | 0.963 µM | 2.33 | 1.79 | 1.77 | 2.86 | 2.73 | 2.42 | – | – | –
